Like-named read-outs stand apart in the source and are kept apart here.
Experiments:
[1] = biological target: T1, recombinant human Wee1A kinase (Homo sapiens, UniProt P30291); assay: Wee1A kinase binding assay (LanthaScreen Eu time-resolved FRET)
T1 construct: full length Wee1 kinase was expressed by baculovirus in insect cells; purchased Invitrogen PV3817; host or cells: insect cells (baculovirus)
Procedure, shortened: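 Full-length, baculovirus-expressed GST-tagged Wee1A (5 nM) was mixed with 2 nM Eu-anti-GST antibody, 30 nM kinase tracer 178 and compound (1% DMSO). Buffer was 50 mM HEPES pH 7.5, 10 mM MgCl2, 1 mM EGTA, 0.01% Brij-35, incubated 60 min at room temperature. TR-FRET 665/615 nm emission ratios from duplicates were curve-fitted.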

[2] = biological target: T2, Myt1 kinase (recombinant PMYT-1) (Homo sapiens, UniProt Q99640); assay: Myt1 kinase binding assay (LanthaScreen Eu Kinase Binding Assay); conditions: 3 nM tracer 178, 2.5 nM PMYT-1, 1 nM Eu-labeled antibody; read-out: Myt1 kinase Binding IC50
T2 construct: full length PMYT-1 was expressed by baculovirus in insect cells; purchased Invitrogen A30984; host or cells: insect cells (baculovirus)
T2 sequence (Q99640 1-499): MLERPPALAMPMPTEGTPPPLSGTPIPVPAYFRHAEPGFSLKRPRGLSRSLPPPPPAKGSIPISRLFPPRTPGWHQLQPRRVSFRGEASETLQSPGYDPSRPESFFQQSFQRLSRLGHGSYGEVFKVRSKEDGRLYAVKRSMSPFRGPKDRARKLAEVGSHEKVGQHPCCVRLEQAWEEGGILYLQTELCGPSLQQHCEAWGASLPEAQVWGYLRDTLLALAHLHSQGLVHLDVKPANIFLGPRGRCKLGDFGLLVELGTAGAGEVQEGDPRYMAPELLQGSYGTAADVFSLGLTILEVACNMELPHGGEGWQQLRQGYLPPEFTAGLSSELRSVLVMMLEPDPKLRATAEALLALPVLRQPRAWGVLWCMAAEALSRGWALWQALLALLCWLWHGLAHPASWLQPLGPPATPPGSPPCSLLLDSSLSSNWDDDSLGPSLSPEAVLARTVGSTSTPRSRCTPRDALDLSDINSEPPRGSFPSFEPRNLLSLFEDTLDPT
Procedure, shortened: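 Compound binding to Myt1 kinase was assessed using the LanthaScreen Eu Kinase Binding Assay. This europium-based binding format was applied to quantify how strongly each compound bound to the Myt1 enzyme, and the binding affinity was reported for each compound as an IC50 value.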

[3] = biological target: T3, Wee1A kinase (CDK1 Tyr15 phosphorylation in ACHN renal cell carcinoma cells) (Homo sapiens, UniProt P30291); assay: High-content imaging of pCdk1 Y15, Wee1A kinase target engagement in ACHN cells; assay type: cell-based
T3 construct: pCDK1 Tyr15 immunofluorescence read-out
T3 sequence (P30291 whole entry): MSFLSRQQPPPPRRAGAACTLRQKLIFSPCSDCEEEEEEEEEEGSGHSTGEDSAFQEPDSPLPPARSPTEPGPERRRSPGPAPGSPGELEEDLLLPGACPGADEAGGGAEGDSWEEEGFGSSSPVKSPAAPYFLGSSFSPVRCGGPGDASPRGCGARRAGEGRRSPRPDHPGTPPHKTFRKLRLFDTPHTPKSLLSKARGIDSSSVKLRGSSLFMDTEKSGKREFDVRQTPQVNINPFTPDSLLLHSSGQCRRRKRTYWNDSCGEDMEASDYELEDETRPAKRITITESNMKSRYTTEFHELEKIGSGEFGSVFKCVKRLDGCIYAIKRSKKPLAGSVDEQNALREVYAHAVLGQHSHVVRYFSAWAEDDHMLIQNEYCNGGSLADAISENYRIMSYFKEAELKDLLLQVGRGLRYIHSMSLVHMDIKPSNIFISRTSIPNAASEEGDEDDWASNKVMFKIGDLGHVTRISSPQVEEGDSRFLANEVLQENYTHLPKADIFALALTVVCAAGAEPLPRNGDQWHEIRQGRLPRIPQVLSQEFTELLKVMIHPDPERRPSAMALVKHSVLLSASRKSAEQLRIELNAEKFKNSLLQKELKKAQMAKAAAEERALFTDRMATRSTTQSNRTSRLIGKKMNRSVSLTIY
Procedure, shortened: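 EC50 values come from the per-well fraction of cells with nuclear pCdk1 Y15 staining, normalised to DMSO control, by automated immunofluorescence imaging. Cells were ACHN renal carcinoma, treated 4 h with compound at 7–5,000 nM or 0.3–200 nM.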

ACHN cells = assay: Cell Titer Glo viability assay, ACHN cells; assay type: cell-based; conditions: 144 h, absolute EC50
Protocol: Each of an ACHN renal cell carcinoma cell line (ATCC) and a DAOY medulloblastoma cell line, and an A427 lung cancer line were cultured in Minimum Essential Medium Eagle supplemented with 10% fetal calf serum (Sigma), 1% Penicillin-Streptomycin and 10 mM HEPES buffer (HyClone). Cell cultures were kept in a humidified incubator at 37 °C and 5% CO2. Cells were routinely tested for Mycoplasma contamination.
ACHN cells, DAOY cells, or A427 cells were seeded at a density of 400, 250, or 500 cells per well respectively, in tissue culture treated 384 well plates (Corning Costar). After overnight incubation, cells were treated with drugs at concentrations ranging from 17 to 10 000 nM. Viability compared to untreated control was assessed at 144 h using Cell Titer Glo assay 2.0 (Promega). […] “NT” means the compounds was not tested in the indicated cells.

[4] = 30 nM tracer 178, 5 nM Wee1A kinase, 2 nM Eu-labeled antibody, 60 minutes at room temperature, read-out: Wee1A kinase Binding IC50
[5] = 4 h treatment, nuclear positivity for pCdk1 Y15 vs DMSO control, read-out: CDK1 Tyr15 Phosphorylation EC50

T1 sequence (P30291 whole entry): as above

IC50 [1, 4] | IC50 [2] | EC50 [3, 5] | EC50 (ACHN cells; Homo sapiens) | EC50 (ACHN cells) | IC50 [1] | EC50 ([3]; read-out: CDK1 Tyr15 Phosphorylation EC50, 4 h treatment, nuclear positivity for pCdk1 Y15 vs DMSO control) | SMILES
< 10 nM | 20 to 100 nM | > 1000 nM | > 1000 nM |  |  |  | C=CCn1c(=O)c2cnc(Nc3ccc4c(cnn4C)c3)nc2n1-c1cccc(N[C@@H]2CCNC2)n1 [Compound 102, 1-{6-[(R)-3-pyrrolidinylamino]-2-pyridyl}-2-allyl-6-(1-methyl-1H-indazol-5-ylamino)-1,2-dihydro-3H-1,2,5,7-tetraazainden-3-one]
 | 100 to 500 nM | < 100 nM |  | ≤ 100 nM |  |  | C=CCn1c(=O)c2cnc(Nc3ccc4ccoc4c3)nc2n1-c1cccc(OC2CCN(C)CC2)n1 [Compound 195]
 |  |  | 100 to 500 nM |  | < 10 nM | < 100 nM | CCn1c(=O)c2cnc(Nc3ccc4c(cnn4C)c3)nc2n1-c1cccc(N(C)C2CCN(C)CC2)n1 [Compound 287, 1-{6-[N-methyl(1-methyl-4-piperidyl)amino]-2-pyridyl}-2-ethyl-6-(1-methyl-1H-indazol-5-ylamino)-1,2-dihydro-3H-1,2,5,7-tetraazainden-3-one]
< 10 nM |  | < 100 nM | 100 to 500 nM |  |  |  | C=CCn1c(=O)c2cnc(Nc3ccc4c(cnn4C)c3)nc2n1-c1cccc(O[C@@H]2CCCN(C)C2)n1 [Compound 331, 6-[(1-methyl-1H-indazol-5-yl)amino]-1-(6-{[(3R)-1-methylpiperidin-3-yl]oxy}pyridin-2-yl)-2-(prop-2-en-1-yl)-1H,2H,3H-pyrazolo[3,4-d]pyrimidin-3-one]
< 10 nM | 20 to 100 nM | < 100 nM |  |  |  |  | C=CCn1c(=O)c2cnc(Nc3cccc(-n4cccn4)c3)nc2n1-c1cccc(OC2CCN(C)CC2)n1 [Compound 364, 2-allyl-1-[6-(1-methyl-4-piperidyloxy)-2-pyridyl]-6-[m-(1-pyrazolyl)phenylamino]-1,2-dihydro-3H-1,2,5,7-tetraazainden-3-one]
< 10 nM | 20 to 100 nM | < 100 nM |  |  |  |  | C=CCn1c(=O)c2cnc(Nc3cccc(-n4ccnc4)c3)nc2n1-c1cccc(OC2CCN(C)CC2)n1 [Compound 365, 2-allyl-6-[m-(1-imidazolyl)phenylamino]-1-[6-(1-methyl-4-piperidyloxy)-2-pyridyl]-1,2-dihydro-3H-1,2,5,7-tetraazainden-3-one]
< 10 nM | 100 to 500 nM | 500 to 1000 nM |  |  |  |  | CCn1c(=O)c2cnc(Nc3cccc(-c4cncnc4)c3)nc2n1-c1cccc(OC2CCNCC2)n1 [Compound 366, 2-ethyl-1-[6-(4-piperidyloxy)-2-pyridyl]-6-[m-(5-pyrimidinyl)phenylamino]-1,2-dihydro-3H-1,2,5,7-tetraazainden-3-one]
< 10 nM | 100 to 500 nM | < 100 nM |  |  |  |  | CCn1c(=O)c2cnc(Nc3cccc(-c4cncnc4)c3)nc2n1-c1cccc(OC2CCN(C)CC2)n1 [Compound 367, 2-ethyl-1-[6-(1-methyl-4-piperidyloxy)-2-pyridyl]-6-[m-(5-pyrimidinyl)phenylamino]-1,2-dihydro-3H-1,2,5,7-tetraazainden-3-one]
< 10 nM | 20 to 100 nM | 100 to 500 nM |  |  |  |  | C=CCn1c(=O)c2cnc(Nc3cccc(-c4cccnc4)c3)nc2n1-c1cccc(OC2CCN(C)CC2)n1 [Compound 368, 2-allyl-1-[6-(1-methyl-4-piperidyloxy)-2-pyridyl]-6-[m-(3-pyridyl)phenylamino]-1,2-dihydro-3H-1,2,5,7-tetraazainden-3-one]
< 10 nM | 100 to 500 nM | < 100 nM |  |  |  |  | C=CCn1c(=O)c2cnc(Nc3ccc(OCC(F)(F)F)cc3)nc2n1-c1ccnc(OC2CCN(C3COC3)CC2)n1 [Compound 371, 2-allyl-1-(2-((1-(oxetan-3-yl)piperidin-4-yl)oxy)pyrimidin-4-yl)-6-((4-(2,2,2-trifluoroethoxy)phenyl)amino)-1,2-dihydro-3H-pyrazolo[3,4-d]pyrimidin-3-one]
< 10 nM | 20 to 100 nM | < 100 nM |  |  |  |  | C=CCn1c(=O)c2cnc(Nc3ccc4c(cnn4C(C)C)c3)nc2n1-c1ccnc(OC2CCNCC2)n1 [Compound 375, 2-allyl-6-((1-isopropyl-1H-indazol-5-yl)amino)-1-(2-(piperidin-4-yloxy)pyrimidin-4-yl)-1,2-dihydro-3H-pyrazolo[3,4-d]pyrimidin-3-one]
< 10 nM | < 20 nM | < 100 nM |  |  |  |  | C=CCn1c(=O)c2cnc(Nc3ccc4c(cnn4C4CC4)c3)nc2n1-c1cccc(OC2CCNCC2)n1 [Compound 376, 2-allyl-6-((1-cyclopropyl-1H-indazol-5-yl)amino)-1-(6-(piperidin-4-yloxy)pyridin-2-yl)-1,2-dihydro-3H-pyrazolo[3,4-d]pyrimidin-3-one]
< 10 nM | 20 to 100 nM | 100 to 500 nM |  |  |  |  | C=CCn1c(=O)c2cnc(Nc3ccc(OCCF)cc3)nc2n1-c1ccnc(OC2CCNCC2)n1 [Compound 391, 2-allyl-6-((4-(2-fluoroethoxy)phenyl)amino)-1-(2-(piperidin-4-yloxy)pyrimidin-4-yl)-1,2-dihydro-3H-pyrazolo[3,4-d]pyrimidin-3-one]
< 10 nM | 20 to 100 nM | 100 to 500 nM |  |  |  |  | C=CCn1c(=O)c2cnc(Nc3ccc4cn(C)nc4c3)nc2n1-c1cccc(OC2CCNCC2)n1 [Compound 393, 2-allyl-6-((2-methyl-2H-indazol-6-yl)amino)-1-(6-(piperidin-4-yloxy)pyridin-2-yl)-1,2-dihydro-3H-pyrazolo[3,4-d]pyrimidin-3-one]
< 10 nM | 20 to 100 nM | < 100 nM |  |  |  |  | C=CCn1c(=O)c2cnc(Nc3ccc4c(cnn4C)c3)nc2n1-c1cccc(OC2CCNC(C)C2)n1 [Compound 404, rel-2-allyl-6-((1-methyl-1H-indazol-5-yl)amino)-1-(6-(((2R,4R)-2-methylpiperidin-4-yl)oxy)pyridin-2-yl)-1,2-dihydro-3H-pyrazolo[3,4-d]pyrimidin-3-one]
< 10 nM | < 20 nM | < 100 nM |  |  |  |  | C=CCn1c(=O)c2cnc(Nc3cnc4c(cnn4C(C)C)c3)nc2n1-c1cccc(OC2CCNCC2)n1 [Compound 407, 2-allyl-6-((1-isopropyl-1H-pyrazolo[3,4-b]pyridin-5-yl)amino)-1-(6-(piperidin-4-yloxy)pyridin-2-yl)-1,2-dihydro-3H-pyrazolo[3,4-d]pyrimidin-3-one]
< 10 nM | < 20 nM | < 100 nM |  |  |  |  | C=CCn1c(=O)c2cnc(Nc3ccc4c(c3)nnn4C(C)C)nc2n1-c1cccc(OC2CCNCC2)n1 [Compound 408, 2-allyl-6-((1-isopropyl-1H-benzo[d][1,2,3]triazol-5-yl)amino)-1-(6-(piperidin-4-yloxy)pyridin-2-yl)-1,2-dihydro-3H-pyrazolo[3,4-d]pyrimidin-3-one]
< 10 nM | < 20 nM | < 100 nM |  |  |  |  | C=CCn1c(=O)c2cnc(Nc3ccc4c(c3)nnn4C(C)C)nc2n1-c1cccc(OC2CCN(C)CC2)n1 [Compound 409, 2-allyl-6-((1-isopropyl-1H-benzo[d][1,2,3]triazol-5-yl)amino)-1-(6-((1-methylpiperidin-4-yl)oxy)pyridin-2-yl)-1,2-dihydro-3H-pyrazolo[3,4-d]pyrimidin-3-one]

From US20260364080A1, “PYRAZOLO-PYRIMIDINONE COMPOUNDS FOR USE IN METHODS OF INHIBITING WEE1 A KINASE” (Acrivon Therapeutics, Inc., priority 2023, published 2026)
